# System: diastolic blood pressure
# Assay: Hypotensive activity in anesthetized rats
# Type: in vivo, rat (male Wistar strain)
# Conditions: Rattus norvegicus; intravenous; dose producing a decrease of about 10 mm. in diastolic blood pressure
# Procedure: This procedure is a modification of the technique described by Pike et al., Prostaglandins, Nobel Symposium 2, Stockholm, June, 1966; p. 165.
# Male Wistar strain rats (Royal Hart Farms) averaging approximately 250 grams in weight were fastened to rat boards in a supine position by means of canvas vests and limb ties. The femoral area was infiltrated subcutaneously with lidocaine and the iliac artery and vein were exposed and cannulated. Arterial blood pressure (systolic/diastolic) was recorded using a Statham P23 Db pressure, the animals were anethetized before use with pentobarbital, 30 mg./kg. of body weight intravenously, and also were given hexamethoxium bitartrate, 2 mg./kg. of body weight intravenously. The test compounds were prepared by ultrasonic dispersion in a saline-Tween 80 vehicle. A constant intravenous dose volume of 0.5 ml. was administered and test doses ranged from 0.1 to 10.0 mg./kg. of body weight. Increasing or decreasing doses were selected depending on the dose response obtained. In Table 2B below are set forth the minimal doses required to produce a decrease of about 10 mm. in diastolic blood pressure for typical compounds of the present invention.
row,Structure (SMILES),minimal effective dose
1,CCCCCC(O)/C=C/[C@H]1CCC(=O)[C@@H]1CCCCCC(CC)C(=O)O (stereo partly drawn),< 2 mg/kg
2,CCCCC[C@@H](O)/C=C/[C@H]1CCC(=O)[C@@H]1CCCCCC(CC)C(=O)O (relative stereo) [2-ethyl-9-oxo-15-epi-hydroxy-13-trans-prostenoic acid],2 to 4 mg/kg
3,CCCCC[C@@H](O)/C=C/[C@H]1CCC(=O)[C@@H]1CCCCCC(C)C(=O)O (relative stereo) [2-methyl-9-oxo-15-epi-hydroxy-13-trans-prostenoic acid],2 mg/kg
4,CCCCC[C@@H](O)/C=C/[C@H]1CCC(=O)[C@@H]1CCCCCC(C(=O)O)c1ccccc1 (relative stereo) [2-phenyl-9-oxo-15-epi-hydroxy-13-trans-prostenoic acid],2 to 8 mg/kg
5,CCCCC[C@@H](O)/C=C/[C@H]1CCC(=O)[C@@H]1CCCCOCC(=O)O (relative stereo) [3-oxa-9-oxo-15-epi-hydroxy-13-trans-prostenoic acid],1 to 2 mg/kg
6,CCCCC[C@@H](O)/C=C/[C@H]1CCC(=O)[C@@H]1CCCCSCC(=O)O (relative stereo) [3-thia-9-oxo-15-epi-hydroxy-13-trans-prostenoic acid],2 mg/kg
7,CCCCCC(O)/C=C/[C@H]1CCC(=O)[C@]1(C)CCCCCCC(=O)O (relative stereo) [9-oxo-8β-methyl-15-hydroxy-13-trans-prostenoic acid],2 mg/kg
8,CCCCC[C@@H](O)/C=C/[C@H]1CCCC(=O)[C@@H]1CCCCCCC(=O)O (relative stereo) [9-oxo-10a-homo-15-epi-hydroxy-13-trans-prostenoic acid],2 mg/kg
9,CCCCCC(O)/C=C/[C@H]1CCC(=O)[C@@H]1CCCCCC(F)C(=O)O (relative stereo) [9-oxo-15-hydroxy-2-fluoro-13-trans-prostenoic acid],8 mg/kg
10,CCCCCC(O)/C=C/[C@H]1CCC(=O)[C@@H]1CCCCCC(C)C(=O)O (relative stereo) [9-oxo-15-hydroxy-2-methyl-13-trans-prostenoic acid],2 mg/kg
11,CCCCCC(O)/C=C/[C@H]1CCC(=O)[C@@H]1CCCCCC(C(=O)O)c1ccccc1 (relative stereo) [9-oxo-15-hydroxy-2-phenyl-13-trans-prostenoic acid],8 mg/kg
12,"CCCCCC(O)/C=C/[C@H]1CCC(=O)[C@@H]1CCCCC(C)(C)CC(=O)O (relative stereo) [9-oxo-15-hydroxy-3,3-dimethyl-13-trans-prostenoic acid]",8 mg/kg
13,CCCCCC(O)/C=C/[C@H]1CCC(=O)[C@@H]1CCCCOCC(=O)O (relative stereo) [9-oxo-15-hydroxy-3-oxa-13-trans-prostenoic acid],< 2 mg/kg
14,CCCCCC(O)/C=C/[C@H]1CCC(=O)[C@@H]1CCCCSCC(=O)O (relative stereo) [9-oxo-15-hydroxy-3-thia-13-trans-prostenoic acid],2 mg/kg
15,"CC/C=C\CC(O)/C=C/[C@H]1CCC(=O)[C@@H]1C/C=C\CCCC(=O)O (relative stereo) [9-oxo-15-hydroxy-5-cis,13-trans,17-cis-prostatrienoic acid]",< 2 mg/kg
16,"CCCCCC(O)/C=C/[C@H]1CCC(=O)[C@@H]1CCCCCCCCC(=O)O (relative stereo) [9-oxo-15-hydroxy-7a,7b-bishomo-13-trans-prostenoic acid]",< 8 mg/kg

row,Structure (SMILES),minimal effective dose
1,CCCCCC(O)/C=C/[C@H]1CCCC(=O)[C@@H]1CCCCCCC(=O)O (relative stereo) [9-oxo-15-hydroxy-10a-homo-13-trans-prostenoic acid],2 mg/kg
2,"CCCCCC(O)/C=C\[C@H]1CCC(=O)[C@@H]1CCCCCCC(=O)O (relative stereo) [9-oxo-15-hydroxy-13-cis-prostenoic acid, 15-hydroxy-9-oxo-13-cis-prostenoic acid]",2 to 4 mg/kg
3,"CC/C=C\CC(O)/C=C/[C@H]1CCC(=O)[C@@H]1CCCCCCC(=O)O (relative stereo) [9-oxo-15-hydroxy-13-trans,17-cis-prostadienoic acid]",< 2 mg/kg
4,"CCCCC(C)(C)C(O)/C=C/[C@H]1CCC(=O)[C@@H]1CCCCOCC(=O)O (relative stereo) [9-oxo-15-hydroxy-16,16-dimethyl-3-oxa-13-trans-prostenoic acid]",< 2 mg/kg
5,"CCCCC(C)(C)C(O)/C=C/[C@H]1CCC(=O)[C@@H]1CCCCSCC(=O)O (relative stereo) [9-oxo-15-hydroxy-16,16-dimethyl-3-thia-13-trans-prostenoic acid]",< 2 mg/kg
6,"CCCCC(C)(C)C(O)/C=C/[C@H]1CCC(=O)[C@@H]1CCCCCCC(=O)O (relative stereo) [9-oxo-15-hydroxy-16,16-dimethyl-13-trans-prostenoic acid]",< 2 mg/kg
7,CCCCC(CC)C(O)/C=C/[C@H]1CCC(=O)[C@@H]1CCCCCCC(=O)O (relative stereo) [9-oxo-15-hydroxy-16-ethyl-13-trans-prostenoic acid],< 8 mg/kg
8,CCC/C=C/C(O)CC[C@H]1CCC(=O)[C@@H]1CCCCCCC(=O)O (relative stereo) [9-oxo-15-hydroxy-16-trans-prostenoic acid],< 2 mg/kg
9,"CCCC(C)(C)CC(O)/C=C/[C@H]1CCC(=O)[C@@H]1CCCCCCC(=O)O (relative stereo) [9-oxo-15-hydroxy-17,17-dimethyl-13-trans-prostenoic acid]",2 mg/kg
10,CCCCC[C@@H](O)/C=C/[C@H]1CCC(=O)[C@@H]1CCCCOCC(=O)OCC (relative stereo) [Ethyl 3-oxa-9-oxo-15-epi-hydroxy-13-trans-prostenoate],0.2 mg/kg
11,CCCCCC(O)/C=C/[C@H]1CCC(=O)[C@@H]1CCCCOCC(=O)OCC (relative stereo) [Ethyl 9-oxo-15-hydroxy-3-oxa-13-trans-prostenoate],0.2 mg/kg
12,CCCCCC(O)/C=C/[C@H]1CCCC(=O)[C@@H]1CCCCCCC(=O)OCC (relative stereo) [Ethyl 9-oxo-15-hydroxy-10a-homo-13-trans-prostenoate],2 mg/kg
13,"CCCCCC(O)CC[C@H]1CCC(=O)[C@@H]1CCCCCC(CC)C(=O)O (stereo partly drawn) [2-ethyl-9-oxo-15-hydroxy-prostanoic acid, 9-oxo-15-hydroxy-2-ethyl-prostanoic acid]",0.2 mg/kg
14,"CC/C=C\CC(C)(O)/C=C/[C@H]1CCC(=O)[C@@H]1C/C=C\CCCC(=O)O (stereo partly drawn) [9-oxo-15-hydroxy-15-methyl-5-cis,13-trans,17-cis-prostatrienoic acid]",< 2 mg/kg
15,CCCC#CC(O)CC[C@H]1CCC(=O)[C@@H]1CCCCCCC(=O)O (stereo partly drawn) [9-oxo-15-hydroxy-16-prostynoic acid],2 mg/kg

# System: bronchospasms elicited by acetylcholine
# Assay: Bronchodilator activity (Konzett assay), acetylcholine as spasmogenic agent
# Type: in vivo, guinea pig
# Conditions: Cavia porcellus, read-out: Bronchodilator Activity ED50, spasmogenic agent acetylcholine; three logarithmic cumulative intravenous doses; read-out: Bronchodilator Activity ED50, spasmogenic agent choline
# Procedure: (§1) Bronchodilator activity was determined in guinea pigs against bronchospasms elicited by intravenous injections of 5-hydroxytryptamine, histamine or acetylcholine by the Konzett procedure. [See J. Lulling, P. Lievens, F. El Sayed and J. Prignot, Arzeimittel-Forschung, 18 995 (1968).]
# (§2) In the Table which follows bronchodilater activity for representative compounds of this invention against one or more of the three spasmogenic agents is expressed as an ED50 determined from the results obtained with three logarithemic cumulative intravenous doses.
row,Structure (SMILES),ED50
1,CCCCCC(O)/C=C/[C@H]1CCC(=O)[C@@H]1CCCCCC(CC)C(=O)O (stereo partly drawn),0.000533 mg/kg
2,"CCCCCC(O)/C=C\[C@H]1CCC(=O)[C@@H]1CCCCCCC(=O)O (relative stereo) [9-oxo-15-hydroxy-13-cis-prostenoic acid, 15-hydroxy-9-oxo-13-cis-prostenoic acid]",0.00032 mg/kg
3,CCCC#CC(O)CC[C@H]1CCC(=O)[C@@H]1CCCCCCC(=O)O (stereo partly drawn) [9-oxo-15-hydroxy-16-prostynoic acid],0.00032 mg/kg

# System: bronchospasms elicited by histamine
# Assay: Bronchodilator activity (Konzett assay), histamine as spasmogenic agent
# Type: in vivo, guinea pig
# Conditions: Cavia porcellus; three logarithmic cumulative intravenous doses
# Procedure: as §1, §2
row,Structure (SMILES),ED50
1,CCCCCC(O)/C=C/[C@H]1CCC(=O)[C@@H]1CCCCCC(CC)C(=O)O (stereo partly drawn),0.000145 mg/kg

# System: bronchospasms elicited by 5-hydroxytryptamine
# Assay: Bronchodilator activity (Konzett assay), 5-hydroxytryptamine as spasmogenic agent
# Type: in vivo, guinea pig
# Conditions: Cavia porcellus; three logarithmic cumulative intravenous doses
# Procedure: as §1, §2
row,Structure (SMILES),ED50
1,CCCCCC(O)/C=C/[C@H]1CCC(=O)[C@@H]1CCCCCC(CC)C(=O)O (stereo partly drawn),0.000329 mg/kg

# Reference: US3966773A, “2-Substituted-3,4-epoxycyclopentan-1-ones, and 2-substituted-3,4-epoxycyclopentan-1-ols” (American Cyanamid Company, priority 1975, dated 1976)
